Measurements as given in patent US12077503B2, “Substituted cyclic amides and their use as herbicides” (FMC CORPORATION, priority 2015, dated 2024).

What was measured:
Assay type in all cases: in vivo
corn (Zea mays) = assay: Test A postemergence; conditions: Zea mays, post-emergence, 240 h, Postemergence; for Corn plant response rating (crop injury, 0 = no effect, 100 = complete kill) at 125 g/ha: 125 g ai/ha, visual injury after approx. 10 d, 0 to 100 scale, 100 complete control; for Corn plant response rating (crop injury, 0 = no effect, 100 = complete kill) at 500 g/ha: 500 g ai/ha, visual injury, 0 to 100 scale (0 no effect, 100 complete control), approx. 10 d
How it was run: (§1)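 Seeds sprayed preemergence with a directed soil spray, or plants at 2 to 10 cm height and one- to two-leaf stage sprayed postemergence, with test chemicals in a non-phytotoxic solvent mixture containing surfactant, in loam soil–sand blend. Injury rated visually against untreated controls after about 10 d in greenhouse, 0 (no effect) to 100 (complete control).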

[1] = system: giant foxtail (Setaria faberii); assay: Test A postemergence; conditions: Setaria faberi, post-emergence, 240 h, Postemergence, read-out: Plant response rating, Foxtail, Giant; for pest or weed control at 125 g/ha: 125 g ai/ha, visual injury after approx. 10 d, 0 to 100 scale, 0 no effect, 100 complete control; for pest or weed control at 500 g/ha: 500 g ai/ha, visual injury, 0 to 100 scale (0 no effect, 100 complete control), approx. 10 d
How it was run: as §1

[2] = system: ragweed (common ragweed, Ambrosia elatior); assay: Test A postemergence; conditions: Ambrosia artemisiifolia, post-emergence, 240 h, Postemergence, read-out: Plant response rating, Ragweed; for pest or weed control at 125 g/ha: 125 g ai/ha, visual injury after approx. 10 d, 0 to 100 scale, 0 no effect, 100 complete control; for pest or weed control at 500 g/ha: 500 g ai/ha, visual injury, 0 to 100 scale (0 no effect, 100 complete control), approx. 10 d
How it was run: as §1

[3] = system: barnyardgrass (Echinochloa crus-galli); assay: Test A postemergence; conditions: Echinochloa crus-galli, post-emergence, 240 h, Postemergence, read-out: Plant response rating, Barnyardgrass; for pest or weed control at 125 g/ha: 125 g ai/ha, visual injury after approx. 10 d, 0 to 100 scale, 0 no effect, 100 complete control; for pest or weed control at 500 g/ha: 500 g ai/ha, visual injury, 0 to 100 scale (0 no effect, 100 complete control), approx. 10 d
How it was run: as §1

[4] = system: ryegrass, Italian (Italian ryegrass, Lolium multiflorum); assay: Test A postemergence; conditions: Lolium multiflorum, post-emergence, 240 h, Postemergence, read-out: Plant response rating, Ryegrass, Italian; for pest or weed control at 125 g/ha: 125 g ai/ha, visual injury after approx. 10 d, 0 to 100 scale, 0 no effect, 100 complete control; for pest or weed control at 500 g/ha: 500 g ai/ha, visual injury, 0 to 100 scale (0 no effect, 100 complete control), approx. 10 d
How it was run: as §1

[5] = system: blackgrass (Alopecurus myosuroides); assay: Test A postemergence; conditions: Alopecurus myosuroides, post-emergence, 240 h, Postemergence, read-out: Plant response rating, Blackgrass; for pest or weed control at 125 g/ha: 125 g ai/ha, visual injury after approx. 10 d, 0 to 100 scale, 0 no effect, 100 complete control; for pest or weed control at 500 g/ha: 500 g ai/ha, visual injury, 0 to 100 scale (0 no effect, 100 complete control), approx. 10 d
How it was run: as §1

[6] = system: pigweed (Amaranthus retroflexus); assay: Test A postemergence; conditions: Amaranthus retroflexus, post-emergence, 240 h, Postemergence, read-out: Plant response rating, Pigweed; for pest or weed control at 125 g/ha: 125 g ai/ha, visual injury after approx. 10 d, 0 to 100 scale, 0 no effect, 100 complete control; for pest or weed control at 500 g/ha: 500 g ai/ha, visual injury, 0 to 100 scale (0 no effect, 100 complete control), approx. 10 d
How it was run: as §1

Kochia (Kochia scoparia) = assay: Test A postemergence; conditions: Bassia scoparia, post-emergence, 240 h, Postemergence, read-out: Plant response rating, Kochia; for pest or weed control at 125 g/ha: 125 g ai/ha, visual injury after approx. 10 d, 0 to 100 scale, 0 no effect, 100 complete control; for pest or weed control at 500 g/ha: 500 g ai/ha, visual injury, 0 to 100 scale (0 no effect, 100 complete control), approx. 10 d
How it was run: as §1

[7] = system: wheat (Triticum aestivum); assay: Test A postemergence; conditions: Triticum aestivum, post-emergence, 240 h, Postemergence, read-out: Plant response rating, Wheat; for plant injury at 125 g/ha: 125 g ai/ha, visual injury after approx. 10 d, 0 to 100 scale, 0 no effect, 100 complete control; for plant injury at 500 g/ha: 500 g ai/ha, visual injury, 0 to 100 scale (0 no effect, 100 complete control), approx. 10 d
How it was run: as §1

[8] = system: Galium (catchweed bedstraw, Galium aparine); assay: Test A postemergence; conditions: Galium, post-emergence, 240 h, Postemergence, read-out: Plant response rating, Galium; for pest or weed control at 125 g/ha: 125 g ai/ha, visual injury after approx. 10 d, 0 to 100 scale, 0 no effect, 100 complete control; for pest or weed control at 500 g/ha: 500 g ai/ha, visual injury, 0 to 100 scale (0 no effect, 100 complete control), approx. 10 d
How it was run: as §1

rice (Oryra sativa) = assay: Test B flooded paddy test; conditions: Oryza sativa, 360 h, Flood, 250 g ai/ha; visually evaluated after 13 to 15 d; read-out: Plant response rating, Rice (0 to 100 scale where 0 is no effect and 100 is complete control)
How it was run: (§2)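 Plants at 2-leaf stage flooded to 3 cm above soil, with compounds applied directly to paddy water and that depth maintained. Plants kept in greenhouse 13–15 d. Visual rating versus controls on a 0 (no effect) to 100 (complete control) scale.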

[9] = system: ducksalad (Heteranthera limosa); assay: Test B flooded paddy test; conditions: Heteranthera limosa, 360 h, Flood, 250 g ai/ha; visually evaluated after 13 to 15 d; read-out: Plant response rating, Ducksalad (0 to 100 scale where 0 is no effect and 100 is complete control)
How it was run: as §2

[10] = system: barnyardgrass (Echinochloa crus-galli); assay: Test B flooded paddy test; conditions: Echinochloa crus-galli, 360 h, Flood, 250 g ai/ha; visually evaluated after 13 to 15 d; read-out: Plant response rating, Barnyardgrass (0 to 100 scale where 0 is no effect and 100 is complete control)
How it was run: as §2

[11] = system: sedge, umbrella (small-flower umbrella sedge, Cyperus difformis); assay: Test B flooded paddy test; conditions: Cyperus difformis, 360 h, Flood, 250 g ai/ha; visually evaluated after 13 to 15 d; read-out: Plant response rating, Sedge, Umbrella (0 to 100 scale where 0 is no effect and 100 is complete control)
How it was run: as §2

Compound	Corn plant response rating (crop injury, 0 = no effect, 100 = complete kill) at 125 g/ha (corn (Zea mays)) [%]	Corn plant response rating (crop injury, 0 = no effect, 100 = complete kill) at 500 g/ha (corn (Zea mays)) [%]	pest or weed control at 125 g/ha [1] [%]	pest or weed control at 500 g/ha [1] [%]	pest or weed control at 125 g/ha [2] [%]	pest or weed control at 500 g/ha [2] [%]	pest or weed control at 125 g/ha [3] [%]	pest or weed control at 500 g/ha [3] [%]	pest or weed control at 125 g/ha [4] [%]	pest or weed control at 500 g/ha [4] [%]	pest or weed control at 125 g/ha [5] [%]	pest or weed control at 500 g/ha [5] [%]	pest or weed control at 125 g/ha [6] [%]	pest or weed control at 500 g/ha [6] [%]	pest or weed control at 125 g/ha (Kochia (Kochia scoparia)) [%]	pest or weed control at 500 g/ha (Kochia (Kochia scoparia)) [%]	plant injury at 125 g/ha [7] [%]	plant injury at 500 g/ha [7] [%]	pest or weed control at 125 g/ha [8] [%]	pest or weed control at 500 g/ha [8] [%]	also measured
Cc1c(F)cccc1NC(=O)[C@H]1C(=O)N(C)C[C@@H]1c1ccc(C(F)(F)F)cc1 [Compound 1386]	70	80	90	90	20	50	90	90	40	60	70	80	40	70	70	70	50	60	60	60	pest or weed control at 250 g/ha (rice (Oryra sativa)): 0%; pest or weed control at 250 g/ha [9]: 100%; pest or weed control at 250 g/ha [10]: 55%; pest or weed control at 250 g/ha [11]: 0%
CC(C)c1cccc([C@H]2CN(C)C(=O)[C@@H]2C(=O)Nc2cccc(F)c2F)c1 [Compound 1388]	60	80	90	90	0	50	100	100	60	90	70	90	40	50	30	50	50	60	50	50	pest or weed control at 250 g/ha (rice (Oryra sativa)): 0%; pest or weed control at 250 g/ha [9]: 80%; pest or weed control at 250 g/ha [10]: 65%; pest or weed control at 250 g/ha [11]: 0%
